Experimental findings from patent publication US8927541B2, “Tricyclic antibiotics” (Basilea Pharmaceutica AG, priority 2009, dated 2015) are described below.

One may read the MIC as the lowest concentration that inhibits growth of the organism. A higher MIC goes with a need for much substance.

In one assay the test system is Escherichia coli ATCC2592. The assay is described as follows: Antimicrobial activity assay, MIC by broth microdilution. The format is cell-based. Particulars: 35° C., 20 to 24 h. On the procedure: (§1) The antibacterial activity of compounds is determined by the minimal inhibitory concentration (MIC) method. MICs for all bacteria except pneumococci and Haemophilus influenzae are obtained by broth microdilution with cation-adjusted Mueller-Hinton broth (CAMHB; BBL), according to CLSI guidelines (National Committee for Clinical Laboratory Standards. 2003. Methods for dilution antimicrobial susceptibility tests for bacteria that grow aerobically, 5th ed.; a approved standard M7-A6. National Committee for Clinical Laboratory Standards, Wayne, Pa.), with the following modifications: (i) for pneumococci CAMHB is supplemented with 5% (^v/v) horse serum; (ii) for Haemophilus influenzae CAMHB is supplemented with 5% (^v/v) Fildes enrichment (BBL) (Pankuch, G. A., Hoellman, D. B., Lin, G., Bajaksouzian, S., Jacobs, M. R., and Appelbaum, P. C. 1998. Activity of HMR 3647 compared to those of five agents against Haemophilus influenzae and Moraxella catarrhalis by MIC determination and time-kill assay. Antimicrob. Agents Chemother. 42:3032-3034). Microtiter plates are incubated at 35° C. in ambient air for 20 to 24 h, then inspected using an illuminated microtiter plate reader fitted with a magnifying mirror (MIC 2000; Cooke Laboratory Products, Alexandria, Va.). Compounds of the present invention are tested against several bacteria strains comprising some Acinetobacter baumannii, Enterococcus faecalis, Enterococcus faecium, Escherichia coli, Haemophilus influenzae, Klebsiella pneumoniae, Pseudomonas aeruginosa, Staphylococcus aureus, Staphylococcus epidermidis, Streptococcus pyogenes; Enterobacter aerogenes; Enterobacter cloacae and Streptococcus pneumoniae. All exemplified compounds have a MIC values for Staphylococcus aureus ATCC29213, Staphylococcus epidermidis ATCC14990 and Streptococcus pneumoniae ATCC49619 lower or equal to 8 mg/L except examples 25 and 56 for Staphylococcus epidermidis ATCC14990 and examples 20, 49, 51, 56, 58, 60, 66 and 76 for Streptococcus pneumoniae ATCC4961.
For the molecule `COc1ccc2ncc3c(c2n1)NC([C@H]1CC[C@H](NC(=O)c2ccc4c(c2)NC(=O)CO4)CC1)CO3` (relative stereo) [Example 35, 3-oxo-3,4-dihydro-2H-benzo[1,4]oxazine-6-carboxylic acid [trans-4-(6-methoxy-3,4-dihydro-2H-1-oxa-4,5,9-triaza-phenanthren-3-yl)-cyclohexyl]-amide], the minimal inhibitory concentration (MIC) is ≤ 8 µg/mL.
The same measure, in the same setting: the value for `COc1ccc2ncc3c(c2c1)CC(N1CCC(NC(=O)c2ccc4c(c2)NC(=O)CS4)CC1)CO3` (stereo not drawn) [Example 1, 3-oxo-3,4-dihydro-2H-benzo[1,4]thiazine-6-carboxylic acid [1-(6-methoxy-3,4-dihydro-2H-1-oxa-9-aza-phenanthrene-3-yl)-piperidin-4-yl]-amide] was ≤ 8 µg/mL; that for `COc1ccc2ncc3c(c2c1)CC(N1CCC(NCc2ccc4c(c2)NC(=O)CS4)CC1)CO3` (stereo not drawn) [Example 2, 6-{[1-(6-methoxy-3,4-dihydro-2H-1-oxa-9-aza-phenanthrene-3-yl)-piperidin-4-ylamino]-methyl}-4H-benzo[1,4]thiazine-3-one] was ≤ 8 µg/mL.
The same measure, in the same setting: the value for `COc1ccc2ncc3c(c2c1)CC(N1CCC(NCc2ccc4c(c2)NC(=O)CO4)CC1)CS3` (stereo not drawn) [Example 3, 6-{[1-(6-methoxy-3,4-dihydro-2H-1-thia-9-aza-phenanthrene-3-yl)-piperidin-4-ylamino]-methyl}-4H-benzo[1,4]oxazin-3-one] was ≤ 8 µg/mL.
Turning to `COc1ccc2ncc3c(c2c1)CC(n1cc(NC(=O)c2ccc4c(c2)NC(=O)CS4)cn1)CO3` (stereo not drawn) [Example 4, 3-oxo-3,4-dihydro-2H-benzo[1,4]thiazine-6-carboxylic acid [1-(6-methoxy-3,4-dihydro-2H-1-oxa-9-aza-phenanthrene-3-yl)-1H-pyrazol-4-yl]-amide], the MIC is ≤ 8 µg/mL.
On the same count and under the same terms, the value for `COc1ccc2ncc3c(c2n1)N(C)C(c1ccc(NC(=O)c2ccc4c(c2)NC(=O)CS4)cn1)CO3` (stereo not drawn) [Example 27, 3-oxo-3,4-dihydro-2H-benzo[1,4]thiazine-6-carboxylic acid [6-(6-methoxy-4-methyl-3,4-dihydro-2H-1-oxa-4,5,9-triaza-phenanthren-3-yl)-pyridin-3-yl]-amide] was ≤ 8 µg/mL.

A further assay concerns Streptococcus pneumoniae ATCC49619. Briefly: Antimicrobial activity assay, MIC by broth microdilution (CAMHB with 5% horse serum). Particulars: 35° C., 20 to 24 h. The assay is classed as cell-based. As to the method: as §1
In general terms: Dilution methods test growth across graded concentrations, often in twofold steps.
As to `COc1ccc2ncc3c(c2n1)OC([C@H]1CC[C@H](NC(=O)c2ccc4c(c2)NC(=O)CS4)CC1)CN3C` (relative stereo) [Example 49, 3-oxo-3,4-dihydro-2H-benzo[1,4]thiazine-6-carboxylic acid [trans-4-(6-methoxy-1-methyl-2,3-dihydro-1H-4-oxa-1,5,9-triaza-phenanthren-3-yl)-cyclohexyl]-amide], the MIC was > 8 µg/mL.
Turning to `COc1ccc2ncc3c(c2n1)CC([C@H]1CC[C@H](NC(=O)c2ccc4c(c2)NC(=O)CS4)CC1)CN3` (relative stereo) [Example 76, 3-oxo-3,4-dihydro-2H-benzo[1,4]thiazine-6-carboxylic acid [trans-4-(6-methoxy-1,2,3,4-tetrahydro-1,5,9-triaza-phenanthren-3-yl)-cyclohexyl]-amide], the MIC is > 8 µg/mL.
The same measure, in the same setting: the value for `COc1ccc2ncc3c(c2c1)CC(n1cc(NCCSc2cccs2)cn1)CO3` (stereo not drawn) [Example 20, [1-(6-methoxy-3,4-dihydro-2H-1-oxa-9-aza-phenanthren-3-yl)-1H-pyrazol-4-yl]-[2-(thiophen-2-ylsulfanyl)-ethyl]-amine] was > 8 µg/mL.

The test system of the next assay is Staphylococcus aureus and/or Staphylococcus epidermidis and/or Streptococcus pneumoniae and/or Escherichia coli. The assay is described as follows: MIC, summary statement for staphylococci, pneumococci and E. coli. The format is cell-based. To be noted: 'generally'. On the procedure: (§2) The antibacterial activity of compounds is determined by the minimal inhibitory concentration (MIC) method. MICs for all bacteria except pneumococci and Haemophilus influenzae are obtained by broth microdilution with cation-adjusted Mueller-Hinton broth (CAMHB; BBL), according to CLSI guidelines (National Committee for Clinical Laboratory Standards. 2003. Methods for dilution antimicrobial susceptibility tests for bacteria that grow aerobically, 5th ed.; a approved standard M7-A6. National Committee for Clinical Laboratory Standards, Wayne, Pa.), with the following modifications: (i) for pneumococci CAMHB is supplemented with 5% (^v/v) horse serum; (ii) for Haemophilus influenzae CAMHB is supplemented with 5% (^v/v) Fildes enrichment (BBL) (Pankuch, G. A., Hoellman, D. B., Lin, G., Bajaksouzian, S., Jacobs, M. R., and Appelbaum, P. C. 1998. Activity of HMR 3647 compared to those of five agents against Haemophilus influenzae and Moraxella catarrhalis by MIC determination and time-kill assay. Antimicrob. Agents Chemother. 42:3032-3034). Microtiter plates are incubated at 35° C. in ambient air for 20 to 24 h, then inspected using an illuminated microtiter plate reader fitted with a magnifying mirror (MIC 2000; Cooke Laboratory Products, Alexandria, Va.). […]
As for `COc1ccc2ncc3c(c2n1)NC([C@H]1CC[C@H](NC(=O)c2ccc4c(c2)NC(=O)CO4)CC1)CO3` (relative stereo) [Example 35, 3-oxo-3,4-dihydro-2H-benzo[1,4]oxazine-6-carboxylic acid [trans-4-(6-methoxy-3,4-dihydro-2H-1-oxa-4,5,9-triaza-phenanthren-3-yl)-cyclohexyl]-amide], the MIC is ≤ 8 µg/mL.
In the case of `COc1ccc2ncc3c(c2n1)N(C)C(c1ccc(NC(=O)c2ccc4c(c2)NC(=O)CS4)cn1)CO3` (stereo not drawn) [Example 27, 3-oxo-3,4-dihydro-2H-benzo[1,4]thiazine-6-carboxylic acid [6-(6-methoxy-4-methyl-3,4-dihydro-2H-1-oxa-4,5,9-triaza-phenanthren-3-yl)-pyridin-3-yl]-amide], the minimum inhibitory concentration (MIC) is ≤ 8 µg/mL.

A further assay concerns Staphylococcus aureus and/or Staphylococcus epidermidis and/or Streptococcus pneumoniae. Briefly: MIC, summary statement for staphylococci and pneumococci. Particulars: 'generally'. The assay is classed as cell-based. On the procedure: as §2
For the molecule `O=C1CSc2ccc(C(=O)N[C@H]3CC[C@H](C4COc5cnc6ccccc6c5C4)CC3)cc2N1` (relative stereo) [Example 50, 3-oxo-3,4-dihydro-2H-benzo[1,4]thiazine-6-carboxylic acid [trans-4-(3,4-dihydro-2H-1-oxa-9-aza-phenanthren-3-yl)-cyclohexyl]-amide], the MIC was ≤ 8 µg/mL.
